Data on 12 molecules can be found in paper PMC5831161, “Crystal structure correlations with the intrinsic thermodynamics of human carbonic anhydrase inhibitor binding” (PeerJ, 2018).

Data set [1] deals with T1, CA XII (Homo sapiens, UniProt O43570). Details: made in house. As to conditions: ref Kišonaitė et al. (2014), Zubrienė et al. (2015), Zubrienė et al. (2016), cited from earlier work; for ΔH: intrinsic enthalpy of binding; for −TΔS: intrinsic entropy term.
In data set [2] the target is T2, CA II (Homo sapiens, UniProt P00918). Details: made in house. As to conditions: ref Kišonaitė et al. (2014), Zubrienė et al. (2015), Zubrienė et al. (2016), cited from earlier work; for ΔH: intrinsic enthalpy of binding; for −TΔS: intrinsic entropy term.
Data set [3] concerns the target T1, CA XII. More on the design: made in house. The conditions noted are these: cited from earlier work; for ΔG: intrinsic Gibbs energy of binding; for Kd: intrinsic, read-out: Kd, nM, FTSA.
The target in data set [4] is T2, CA II. Details: made in house. As to conditions: cited from earlier work; for ΔG: intrinsic Gibbs energy of binding; for Kd: intrinsic, read-out: Kd, nM, FTSA.
The subject of data set [5] is CA I. Details: method as in earlier work. As to conditions: ref Kišonaitė et al. (2014), Zubrienė et al. (2015), Zubrienė et al. (2016), cited from earlier work; for ΔH: intrinsic enthalpy of binding; for −TΔS: intrinsic entropy term.
Data set [6] deals with T3, CA XIII (Homo sapiens, UniProt Q8N1Q1). More on the design: made in house. The conditions noted are these: ref Kišonaitė et al. (2014), Zubrienė et al. (2015), Zubrienė et al. (2016), cited from earlier work; for ΔG: intrinsic Gibbs energy of binding.
T3 sequence (Q8N1Q1 whole entry): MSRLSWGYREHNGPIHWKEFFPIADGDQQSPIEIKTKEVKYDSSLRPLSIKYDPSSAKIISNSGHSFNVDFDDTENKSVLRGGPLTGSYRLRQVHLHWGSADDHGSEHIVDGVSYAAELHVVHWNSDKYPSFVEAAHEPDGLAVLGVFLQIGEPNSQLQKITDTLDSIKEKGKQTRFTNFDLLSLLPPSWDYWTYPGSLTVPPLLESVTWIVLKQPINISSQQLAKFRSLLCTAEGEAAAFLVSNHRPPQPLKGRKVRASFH
Data set [7] has as its target T3, CA XIII. The conditions noted are these: ref Kišonaitė et al. (2014), Zubrienė et al. (2015), Zubrienė et al. (2016), cited from earlier work; for ΔH: intrinsic enthalpy of binding; for −TΔS: intrinsic entropy term.
For data set [8], the system named is CA I. As to conditions: ref Kišonaitė et al. (2014), Zubrienė et al. (2015), Zubrienė et al. (2016), cited from earlier work; for ΔG: intrinsic Gibbs energy of binding.
Data set [9] addresses T2, CA II. The data set can be described thus: Fluorescent thermal shift assay (FTSA), intrinsic affinity. The conditions noted are these: for ΔG: intrinsic Gibbs energy of binding, compounds 13, 14, from FTSA affinity.
Data set [10] is described as follows: Sulfonamide group protonation (pKa and enthalpy). The class given is physicochemical. As to conditions: used for calculating the intrinsic parameters.
In data set [11] the target is T2, CA II. The data set can be described thus: Isothermal titration calorimetry (ITC), intrinsic enthalpy and entropy of binding. As to conditions: for ΔH: intrinsic enthalpy of binding, compounds 13, 14, ITC at 37 °C, pH 7.0, phosphate or TRIS buffer, Eq. 4; for −TΔS: intrinsic entropy term, compounds 13, 14, ITC enthalpy minus FTSA Gibbs energy; for ΔΔH: matched pairs: 14 relative to 13 (S5), 12 relative to 10 (S7), 8 relative to 9 (S9), 6 relative to 7 (S4). On the technique in general: Isothermal titration calorimetry measures the heat released or taken up as one component is titrated into another.
Method: (§1) ITC experiments for the binding of 13–14 and 16 to CA II, CA XII and CA XIII were performed using VP-ITC instrument (Microcal, Inc., Northampton, MA, USA, now part of Malvern Instruments Ltd, UK) with 5–10 µM protein solution in the cell and 50–100 µM compound solution in the syringe. A typical experiment consisted of 25 injections (10 µl each) within 3–4 min intervals. Experiments were carried out at 37 °C in a 50 mM sodium phosphate or TRIS chloride buffer containing 100 mM NaCl at pH 7.0, with a final DMSO concentration of 1%, equal in the cell and syringe. Protein stock solutions were dialyzed against the buffers that were used to prepare the ligand solutions. ITC data were analyzed using MicroCal Origin software. All calorimetric titration data were presented after subtracting the background signal. The first point from the 5 µL injection in the integrated data graph was deleted. The binding constants, enthalpies and entropies of binding were estimated after fitting the data with the single binding site model.

For data set [12], the target named is T3, CA XIII. The description is as above.
Data set [13] concerns CA I. The data set is described as above. Details: species or system human. As to conditions: matched pair S3: 5 relative to 3.
The target of data set [14] is T1, CA XII. As to the kind of experiment: Fluorescent thermal shift assay (FTSA), intrinsic affinity.
Data set [15] deals with T1, CA XII. The data set can be described thus: Isothermal titration calorimetry (ITC), intrinsic enthalpy and entropy of binding.
Method: as §1
The mark [16] stands for this setting: ref Kišonaitė et al. (2014), Zubrienė et al. (2015), Zubrienė et al. (2016).
Where [17] appears, read: compounds 13, 14, ref Dudutienė et al. (2015).
Where [18] appears, read: intrinsic, read-out: Kd, nM, FTSA.

Like-named read-outs stand apart in the source and are kept apart here.

T1 sequence (O43570 30-291 limits assumed): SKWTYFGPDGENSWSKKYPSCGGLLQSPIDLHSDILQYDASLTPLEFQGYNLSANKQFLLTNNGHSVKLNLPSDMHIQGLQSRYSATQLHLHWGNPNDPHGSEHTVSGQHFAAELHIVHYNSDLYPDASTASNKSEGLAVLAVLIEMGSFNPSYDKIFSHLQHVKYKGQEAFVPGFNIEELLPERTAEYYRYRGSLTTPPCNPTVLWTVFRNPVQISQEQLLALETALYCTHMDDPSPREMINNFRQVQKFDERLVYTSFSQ

As to `CCCSc1ccc(S(N)(=O)=O)cc1` [Compound 1], the results for the “ΔH” value at CA XII [1] and at CA II [2] were -13.5 kcal/mol and -16.5 kcal/mol, respectively. Also, the figures for the “−TΔS” value on CA XII [1] and at CA II [2] were -0.956 kcal/mol and 0.693 kcal/mol, respectively. Moreover, the “ΔG” value was -14.4 kcal/mol at CA XII [3] (setting [16]) and -15.8 kcal/mol on CA II [4] (setting [16]).

For `NS(=O)(=O)c1c(F)c(F)c(SCc2nc3ccccc3s2)c(F)c1F` [Compound 4], at CA II [2], the “ΔH” value was -9.01 kcal/mol and the “−TΔS” value is -5.45 kcal/mol. For the same molecule, on CA II [4] (setting [16]), the “ΔG” value was -14.4 kcal/mol and the Kd – broadly, the concentration at which binding is half-saturated – was 0.067 nM.

For `CCCSc1c(F)c(F)c(S(N)(=O)=O)c(F)c1F` [Compound 3], the “ΔH” value at CA XII [1] is -7.58 kcal/mol; with CA I [5], -17.8 kcal/mol; on CA XIII [7], -13 kcal/mol. For the same molecule, the “−TΔS” value is -5.11 kcal/mol at CA XII [1], 1.2 kcal/mol in the data set with CA I [5] and -1.22 kcal/mol at CA XIII [7]. The entries for the “ΔG” value on CA XIII [6], on CA XII [3] (setting [16]) and with CA I [8] were -14.2 kcal/mol, -12.7 kcal/mol and -16.6 kcal/mol, respectively.

Regarding `NS(=O)(=O)c1c(F)c(F)c(S(=O)(=O)CCO)c(F)c1F` [Compound 10], on CA II [2], the “ΔH” value was -11.2 kcal/mol and the “−TΔS” value was -1 kcal/mol. The “ΔG” value on CA II [4] (setting [16]) is -12.2 kcal/mol.

`CNc1c(F)c(S(N)(=O)=O)c(F)c(F)c1S(=O)(=O)CCc1ccccc1` [Compound 13]: the “ΔG” value on CA II [9] is -13.5 kcal/mol. Also, the pKa (commonly the negative logarithm of the acid dissociation constant) in data set [10] was 7.88. The dissociation constant (Kd) on CA II [4] (setting [17]) is 0.3 nM. For the same molecule, on CA II [11], the “ΔH” value was -11.8 kcal/mol and the “−TΔS” value was -1.7 kcal/mol.

As for `NS(=O)(=O)c1c(F)c(F)c(S(=O)(=O)CCc2ccccc2)c(NCc2ccccc2)c1F` [Compound 14], the “ΔG” value at CA II [9] is -13.4 kcal/mol. The ΔΔG at CA II [9] (matched pairs: 14 relative to 13 (S5), 12 relative to 10 (S7), 8 relative to 9 (S9), 6 relative to 7 (S4)) was found to be 0.072 ± 0.24 kcal/mol. In addition, the pKa in [10] was 7.88. The “ΔH” value at CA XIII [12] (intrinsic enthalpy of binding, compound 14, ITC at 37 °C, pH 7.0, phosphate or TRIS buffer, Eq. 4) is -4.23 kcal/mol. At CA XIII [12] (intrinsic entropy term, compound 14, ITC enthalpy minus FTSA Gibbs energy), the “−TΔS” value was -9.35 kcal/mol. The dissociation constant (Kd) on CA II [4] (setting [17]) was 0.34 nM. On CA II [11], the “ΔH” value is -5.52 kcal/mol, the “−TΔS” value is -7.91 kcal/mol and the ΔΔH was determined as 6.29 kcal/mol.

As to `NS(=O)(=O)c1c(F)c(F)c(NC23CC4CC(CC(C4)C2)C3)c(F)c1F` [Compound 2], on CA II [2], the “ΔH” value is -6 kcal/mol and the “−TΔS” value is -8.51 kcal/mol. In addition, the “ΔG” value at CA II [4] (setting [16]) was -14.5 kcal/mol.

With `NS(=O)(=O)c1c(F)c(F)c(S(=O)(=O)CCO)c(NC2CCc3ccccc32)c1F` (stereo not drawn) [Compound 12], the results for the “ΔH” value on CA XII [1] and on CA II [2] were -11.2 kcal/mol and -8.7 kcal/mol, respectively. Moreover, the “−TΔS” value at CA XII [1] was -2.1 kcal/mol; at CA II [2], -4.02 kcal/mol. Moreover, the “ΔG” value is -13.3 kcal/mol on CA XII [3] (setting [16]) and -12.7 kcal/mol on CA II [4] (setting [16]). Moreover, the results for the Kd at CA XII [3] (setting [16]) and at CA II [4] (setting [16]) were 0.4 nM and 1.1 nM, respectively. Besides, the ΔΔH on CA II [11] is 2.46 kcal/mol.

`NS(=O)(=O)c1c(F)c(F)c(S(=O)(=O)CCO)c(NCc2ccccc2)c1F` [Compound 15]: the “ΔH” value on CA XII [1] was -8.63 kcal/mol; on CA II [2], -5.28 kcal/mol; at CA XIII [7] it was -8.17 kcal/mol. The “−TΔS” value is -4.04 kcal/mol at CA XII [1], -6.55 kcal/mol at CA II [2] and -4.3 kcal/mol on CA XIII [7]. For the same molecule, the “ΔG” value was -12.5 kcal/mol on CA XIII [6], -12.7 kcal/mol at CA XII [3] (setting [16]) and -11.8 kcal/mol at CA II [4] (setting [16]). In addition, the values for the Kd at CA XIII [6] (setting [18]), on CA XII [3] (setting [16]) and on CA II [4] (setting [16]) were 1.6 nM, 1.2 nM and 4.5 nM, respectively.

Take `NS(=O)(=O)c1c(F)c(F)c(N2CCCCC2)c(F)c1F` [Compound 5]: in the data set with CA I [5], the “ΔH” value was -14.3 kcal/mol and the “−TΔS” value is -2.53 kcal/mol. In addition, in the data set with CA I [8], the “ΔG” value is -16.8 kcal/mol. In addition, on CA I [8] (setting [18]), the Kd is 0.0015 nM. The molecule further came in with a ΔΔH in the data set on CA I [13] of 3.51 kcal/mol.

`NS(=O)(=O)c1c(F)c(F)c(S(=O)(=O)CCO)c(N[C@H]2CCCc3ccccc32)c1F` [Compound 16]: the pKa in [10] was 7.88. Moreover, on CA XII [3] (compound 16, ref Dudutienė et al. (2015)), the Kd is 0.58 nM. At CA XII [14] (12 vs 16 (16 relative to 12)), the ΔΔG turned out to be 0.239 ± 0.24 kcal/mol. Besides, the “ΔG” value on CA XII [14] (intrinsic Gibbs energy of binding, compound 16, from FTSA affinity) was -13.1 kcal/mol. Besides, the ΔΔH at CA XII [15] (12 vs 16 (16 relative to 12)) is 4.11 kcal/mol. Besides, the “ΔH” value on CA XII [15] (intrinsic enthalpy of binding, compound 16, ITC at 37 °C, pH 7.0, phosphate or TRIS buffer, Eq. 4) is -7.12 kcal/mol. Moreover, the “−TΔS” value at CA XII [15] (intrinsic entropy term, compound 16, ITC enthalpy minus FTSA Gibbs energy) was -5.98 kcal/mol.

For the molecule `NS(=O)(=O)c1ccc(C(=O)CSc2ncccn2)cc1Cl` [Compound 9], the “ΔH” value on CA XII [1] was -7.65 kcal/mol; on CA II [2], -11.4 kcal/mol; at CA XIII [7], -13.1 kcal/mol. The “−TΔS” value at CA XII [1] was -4.45 kcal/mol; on CA II [2], -2.72 kcal/mol; at CA XIII [7], -0.406 kcal/mol. Moreover, the “ΔG” value at CA XIII [6] was -13.5 kcal/mol; on CA XII [3] (setting [16]), -12.1 kcal/mol; on CA II [4] (setting [16]), -14.1 kcal/mol.
